3 compounds from US10479752B2, “Deuterated tetramethyl dioic acids, compositions comprising them and uses thereof” (SYNDROMEX LTD., priority 2011, dated 2019) can be followed below.

This data set can be described thus: Chemical and isotopic stability as solutions in DMSO/phosphate buffered saline over 48 hours. Particulars: for chemical purity (HPLC area percent) with respect to related substances: all samples through the study; for analyte recovered, yield: summary over the study; for disenrichment of the product (isotopic stability): throughout the time period of the study.
Where [1] appears, read: DMSO/PBS solution, 37° C., 24 h.
[2] abbreviates: DMSO/PBS solution, 37° C., 48 h.
The mark [3] stands for this setting: Original Sample (before the stability study).
The mark [4] stands for this setting: DMSO/PBS solution, 37° C., 96 h.

Method: A 1 mg/mL stock solution (˜55 mL) of deuterated compound in DMSO was prepared. A measured volume of stock (7.5 mL) was dispensed in to each of seven vials. To each vial was added a measured volume of PBS (aq) (3.0 mL), and each vial was agitated to mix. The vials were then placed in a thermostatically-controlled oven set to 37° C. At each time-point (0 h, 2 h, 4 h, 24 h, 48 h) a vial was drawn from the oven. To the vial was added MTBE (9.0 mL), and the mixture was stirred vigorously for 5 min. The layers were separated, and the MTBE layer was agitated with DI water (3.75 mL) for 1 min. The layers were separated. The MTBE layer was dried with MgSO4 for >1 h, and then filtered through a PTFE syringe filter into a tared vial. The solution was concentrated in vacuo to a solid residue, and the mass of the residue was calculated and recorded. To the residue a measured volume of MeOH was added to make (theoretically) a 2.5 mg/mL solution. In this case, 3.00 mL MeOH was added to each vial which theoretically contained 7.5 mg of compound. The content of each solution was measured by quantitative HPLC analysis (by comparison to a standard of known concentration). The MeOH solutions were then recovered, concentrated in vacuo to a solid, and then analyzed by GCMS to determine isotopic enrichment as the methyl ester derivatives.

On to `[2H]C([2H])([2H])C(CCCCCCCCCCCCCCC(C(=O)O)(C([2H])([2H])[2H])C([2H])([2H])[2H])(C(=O)O)C([2H])([2H])[2H]` [Compound 8, 2,2,17,17-Tetramethyl(D12)-octadecanedioic acid], for which the “GC/MS IE (isotopic enrichment)” value is, setting by setting: (DMSO/PBS solution, 37° C., 0 h) 99.9%; (DMSO/PBS solution, 37° C., 2 h) 99.9%; (DMSO/PBS solution, 37° C., 4 h) 99.9%; under setting [1], 99.9%; under setting [2], 99.9%; under setting [3], 99.9%. For the same compound, the “HPLC Area Percentage” value is given as 95.1% (DMSO/PBS solution, 37° C., 0 h); 94.3% (DMSO/PBS solution, 37° C., 2 h); 94.1% (DMSO/PBS solution, 37° C., 4 h); 96.0% under setting [1]; 97.2% under setting [2]; 100.0% under setting [3]. Moreover, the “HPLC Assay” value came out at 60.0% (DMSO/PBS solution, 37° C., 0 h); 68.7% (DMSO/PBS solution, 37° C., 2 h); 56.9% (DMSO/PBS solution, 37° C., 4 h); 66.8% under setting [1]; 47.7% under setting [2]. The “chemical purity (HPLC area percent) with respect to related substances” value (DMSO/PBS solution, 37° C.) is recorded as “around 95%”. In addition, the “analyte recovered, yield” value (DMSO/PBS solution, 37° C.) is given as “about 85%”. In addition, the “disenrichment of the product (isotopic stability)” value (DMSO/PBS solution, 37° C.) is “No disenrichment”.
As for `[2H]C([2H])([2H])C(CCCCCCCCCCC(CC(=O)O)(C([2H])([2H])[2H])C([2H])([2H])[2H])(CC(=O)O)C([2H])([2H])[2H]` [Compound 3, 3,3,14,14-[D12]Tetramethyl-1,16-hexadecanedoic acid], the “GC/MS IE (isotopic enrichment)” value amounted to 99.9% (DMSO/PBS solution, 37° C., 0 h); 99.9% (DMSO/PBS solution, 37° C., 2 h); 99.9% (DMSO/PBS solution, 37° C., 4 h); 99.9% under setting [1]; 99.9% under setting [2]. In addition, the “HPLC Area Percentage” value came to 98.0% (DMSO/PBS solution, 37° C., 0 h); 98.8% (DMSO/PBS solution, 37° C., 2 h); 98.4% (DMSO/PBS solution, 37° C., 4 h); 98.6% under setting [1]; 98.5% under setting [2]; 100.0% under setting [3]. The “HPLC Assay” value worked out at 33.3% (DMSO/PBS solution, 37° C., 0 h); 38.4% (DMSO/PBS solution, 37° C., 2 h); 32.4% (DMSO/PBS solution, 37° C., 4 h); 46.0% under setting [1]; 50.2% under setting [2]. Moreover, for the setting “DMSO/PBS solution, 37° C.”, the “analyte recovered, yield” value is on record as “about 95%”. Also, for the setting “DMSO/PBS solution, 37° C.”, the “disenrichment of the product (isotopic stability)” value is recorded as “No disenrichment”.
As to `[2H]C([2H])(C(=O)O)C(C)(C)CCCCCCCCCCC(C)(C)C([2H])([2H])C(=O)O` [Compound 2, 3,3,14,14-Tetramethyl-1,16-[2-D2,15-D2]hexadecanediol acid], the “GC/MS IE (isotopic enrichment)” value is, setting by setting: (DMSO/PBS solution, 37° C., 0 h) 97.9%; (DMSO/PBS solution, 37° C., 2 h) 98.0%; (DMSO/PBS solution, 37° C., 4 h) 98.0%; under setting [1], 98.0%; under setting [2], 98.0%; under setting [4], 98.0%. Further, the “HPLC Area Percentage” value runs as follows: (DMSO/PBS solution, 37° C., 0 h) 94.9%; (DMSO/PBS solution, 37° C., 2 h) 95.5%; (DMSO/PBS solution, 37° C., 4 h) 95.4%; under setting [1], 95.2%; under setting [2], 96.0%; under setting [4], 96.1%. In addition, the “HPLC Area Percentage” value under setting [3] came to 97.0%. Further, the “HPLC Assay” value was 67.4% (DMSO/PBS solution, 37° C., 0 h); 65.1% (DMSO/PBS solution, 37° C., 2 h); 62.4% (DMSO/PBS solution, 37° C., 4 h); 86.0% under setting [1]; 76.8% under setting [4]. The “chemical purity (HPLC area percent) with respect to related substances” value (DMSO/PBS solution, 37° C.) is “around 96%”. Also, the “analyte recovered, yield” value (DMSO/PBS solution, 37° C.) is on record as “approximately 90%”.
